In BindingDB's records for doi:10.1016/s0960-894x(98)00596-4 (University of Connecticut, 1999) one finds Ki data, which are given here for two molecules.

Molecules are shown by their SMILES.

The nature of experiment [1]: Inhibitory activity against alpha-L-fucosidase in bovine kidney; Competitive Inhibition type.
A short description of experiment [2]: Inhibitory activity against alpha-L-fucosidase in bovine kidney at PH of 6.5; Mixed Inhibition type. The following applies: pH 6.5.
The nature of experiment [3]: Inhibitory activity against alpha-L-fucosidase in bovine epididymis at PH of 6.5; Competitive Inhibition type. Conditions: pH 6.5.

The Ki is a dissociation constant, usually derived from enzyme kinetics or from competition with a known ligand. Low values mean tighter binding, high ones weaker binding. Molecule `O[C@H]1[C@H](O)[C@H](O)O[C@@H](CS)[C@H]1O` [(2R,3S,4R,5S,6R)-6-Mercaptomethyl-tetrahydro-pyran-2,3,4,5-tetraol] showed a Ki in experiment [1] of 42 µM.
For `CC(=O)NCSC1OC(C)C(O)C(O)C1O` (stereo not drawn) [N-(3,4,5-Trihydroxy-6-methyl-tetrahydro-pyran-2-ylsulfanylmethyl)-acetamide], the Ki came out at 4.6 µM in experiment [2] and 5.6 µM in experiment [3].
